Columns and labels:
Settings in all cases: 72 h
HepG2 [1] = assay: drug sensitivity score (DSS) for viability; higher = more toxic; extreme values may be limits of the assay
Caco-2 [2] = assay: as above
U2OS [3] = assay: as above
Vero E6 [4] = assay: as above
Calu-3 [5] = assay: as above
HepG2 [6] = assay: cell viability relative to DMSO; higher = less toxic
Caco-2 [7] = assay: as above
U2OS [8] = assay: as above
Vero E6 [9] = assay: as above
Calu-3 [10] = assay: as above
HepG2 [11] = assay: relative viability EC50 (midpoint between 100% and the lowest measured viability); higher = less toxic
Caco-2 [12] = assay: as above
U2OS [13] = assay: as above
Vero E6 [14] = assay: as above
Calu-3 [15] = assay: as above

Compound	drug sensitivity score (HepG2 [1])	drug sensitivity score (Caco-2 [2])	drug sensitivity score (U2OS [3])	drug sensitivity score (Vero E6 [4])	drug sensitivity score (Calu-3 [5])	cell viability (HepG2 [6]; 1 nM) [%]	cell viability (HepG2 [6]; 10 nM) [%]	cell viability (HepG2 [6]; 100 nM) [%]	cell viability (HepG2 [6]; 1000 nM) [%]	cell viability (HepG2 [6]; 10000 nM) [%]	cell viability (Caco-2 [7]; 1 nM) [%]	cell viability (Caco-2 [7]; 10 nM) [%]	cell viability (Caco-2 [7]; 100 nM) [%]	cell viability (Caco-2 [7]; 1000 nM) [%]	cell viability (Caco-2 [7]; 10000 nM) [%]	cell viability (U2OS [8]; 1 nM) [%]	cell viability (U2OS [8]; 10 nM) [%]	cell viability (U2OS [8]; 100 nM) [%]	cell viability (U2OS [8]; 1000 nM) [%]	cell viability (U2OS [8]; 10000 nM) [%]	cell viability (Vero E6 [9]; 1 nM) [%]	cell viability (Vero E6 [9]; 10 nM) [%]	cell viability (Vero E6 [9]; 100 nM) [%]	cell viability (Vero E6 [9]; 1000 nM) [%]	cell viability (Vero E6 [9]; 10000 nM) [%]	cell viability (Calu-3 [10]; 1 nM) [%]	cell viability (Calu-3 [10]; 10 nM) [%]	cell viability (Calu-3 [10]; 100 nM) [%]	cell viability (Calu-3 [10]; 1000 nM) [%]	cell viability (Calu-3 [10]; 10000 nM) [%]	relative viability EC50 (HepG2 [11]) [µM]	relative viability EC50 (Caco-2 [12]) [µM]	relative viability EC50 (U2OS [13]) [µM]	relative viability EC50 (Vero E6 [14]) [µM]	relative viability EC50 (Calu-3 [15]) [µM]
C[N+](C)(C)CCCCCCCCCC[N+](C)(C)C [decamethonium]	0	0	0	0	0	102	99.2	96.2	93.2	104	98.1	93.1	99.1	99.9	97.4	98.3	99.8	94	97.3	95.5	101	98	102	95.7	99.7	88.3	114	95.6	108	89.3	> 10	> 10	> 10	> 10	> 10
CC(=O)N[C@H](Cc1ccc2ccccc2c1)C(=O)N[C@H](Cc1ccc(Cl)cc1)C(=O)N[C@H](Cc1cccnc1)C(=O)N[C@@H](CO)C(=O)N[C@@H](Cc1ccc(NC(=O)[C@@H]2CC(=O)NC(=O)N2)cc1)C(=O)N[C@H](Cc1ccc(NC(N)=O)cc1)C(=O)N[C@@H](CC(C)C)C(=O)N[C@@H](CCCCNC(C)C)C(=O)N1CCC[C@H]1C(=O)N[C@H](C)C(N)=O [degarelix]	0	0	0	0	0	103	80.7	112	91	110	90.3	92.8	99.9	90.4	99.6	97.1	97	98.7	99.9	101	95.6	93.8	92	89.8	101	103	104	91.7	91.9	96.6	> 10	> 10	> 10	> 10	> 10
CCN[C@@H](C)Cc1cccc(C(F)(F)F)c1 [dexfenfluramine]	0	0	0	0	0	106	93.7	105	82.9	97.5	105	114	89.8	108	106	93.5	96.7	96.1	94.3	101	99.4	92.7	100	90.7	94.7	97.4	109	105	118	113	> 10	> 10	> 10	> 10	> 10

— the supplement of paper PMC13380429
